How the values were obtained:
K562 = assay: CCK8 antiproliferative assay, K562; type: cell-based; settings: Homo sapiens, CCK8, 48 h, mean ± SD, n = 3
Procedure: (§1) For all biological assays, all of the synthesized compounds were dissolved in DMSO. The cytotoxicity of all of the target compounds against the HCT116, K562, KU812, and HT-29 cells was determined by an CCK8 assay in vitro using adriamycin and echinatin as the controls. About 3000 cells per well were seeded in a 96-well plate and incubated for 24 h. Then, the cells were stimulated with different concentrations of test compounds for 48 h. The CCK8 solution (100 µL 0.5 mg/mL^−1) was added to each well, and the cells were incubated for another 4 h. Then, the absorbance of the samples was measured at 450 nm. The IC50 values were calculated according to the Logit method after obtaining the inhibitory rate. All experiments were repeated three times.

KU812 = assay: CCK8 antiproliferative assay, KU812; type: cell-based; settings: Homo sapiens, CCK8, 48 h, mean ± SD, n = 3
Procedure: as §1

HT-29 = assay: CCK8 antiproliferative assay, HT-29; type: cell-based; settings: Homo sapiens, CCK8, 48 h, mean ± SD, n = 3
Procedure: as §1

HCT116 = assay: CCK8 antiproliferative assay, HCT116; type: cell-based; settings: Homo sapiens, HCT-116; CCK8, 48 h, mean ± SD, n = 3
Procedure: as §1

CCC-HIE-2 = assay: Cytotoxicity toward CCC-HIE-2 cells; type: cell-based, human
c-KIT = c-KIT (Homo sapiens, UniProt P10721); assay: Biochemical c-KIT activity assay (ADP-Glo); settings: 20 μM ATP, read-out: IC50 for c-KIT inhibition
Procedure: The enzymatic activities of c-KIT were determined by in vitro kinase assays using the ADP-Glo reagent (Promega, Madison, WI, USA) according to the manufacturer’s instructions. Briefly, 250 ng of c-KIT protein was incubated with compounds in 10 μL of reaction buffer (40 mM Tris−HCl, pH 7.4, 2 mM MnCl2, 2 mM DTT, 20 mM MgCl2, 0.1 mg/mL bovine serum albumin, 1 mM Na3VO4) containing 20 μΜ ATP and 40 μM poly (Glu4-Tyr1) as substrates at 30 °C for 150 min. The ADP-Glo reagent was then added, and the mixture was incubated at 25 °C for 40 min. The kinase detection reagent was added for another 30 min at 25 °C. The converted ADP was determined by luminescence measurement using a Wallac Vector 1420 multilabel counter (PerkinElmer).

[1] = tested on: four cancer cell lines (K562, KU812, HT-29, HCT116); assay: CCK8 antiproliferative assay, summary over the four cancer cell lines; type: cell-based; settings: Homo sapiens; range over K562, KU812, HT-29, HCT116; read-out: IC50 against the four cancer cell lines
Procedure: as §1

HCT116 cells [2] = assay: Intracellular ROS generation (DCFH-DA, flow cytometry); type: cell-based, human; settings: escalating concentrations
Procedure: Approximately 4 × 10^5 cells per well were seeded in a 6-well plate and incubated for 12 h, then the discarded medium was replaced with fresh medium containing different concentrations of Compound T4 (0 μM, 0.625 μM, 1.25 μM, 2.5 μM, and 5 μM) for 48 h. ROS production was detected by using the peroxide-sensitive fluorescent probe DCFH-DA. After treatment with different concentrations of T4, the cells were incubated with 10 µg/mL DCFH-DA at 37 °C for 20 min. Then, the cells were harvested. Samples were analyzed by flow cytometry (FACS Calibur, Becton-Dickinson, East Rutherford, NJ, USA).

HCT116 cells [3] = assay: Cell cycle analysis (PI staining, flow cytometry); type: cell-based, human
Procedure: The effects of Compound T4 on cell cycle progression were verified by using a standard (PI) staining procedure followed by flow cytometry analysis. HCT116 cells were seeded in 6-well plates and incubated for 24 h until the cells adhered. […] Control cells and treated cells were washed twice with PBS, centrifuged (1000 rpm, 5 min), and collected at a final concentration of 50,000 cells. Then, a single cell suspension was fixed in ice-cold 70% (v/v) ethanol overnight at 4 °C. The cells were washed again with PBS. A total of 100 μL RNase A was added and the cells were incubated at 37 °C for 30 min. The cell DNA was stained with 400 μL PI for 30 min. Data collection and analysis were carried out using a flow cytometer (Beckman Coulter cytoFLEX, USA).

HCT116 cells [4] = assay: Western blot of c-KIT downstream proteins and caspase-3; type: cell-based, human; settings: 48 h
Procedure: HCT116 cells were seeded at a density of 4 × 10^5 cells per well and treated with various concentrations of Compound T4 (0, 1.25, 2.5, and 5 µM) for 48 h. After this, cells were collected and washed twice with ice-cold DPBS. The pellets were resuspended in a total protein extraction buffer (20 mM HEPES, 350 mM NaCl, 20% glycerol, 1% NP-40, 1 mM MgCl2, 0.5 mM EDTA, 0.1 mM EGTA, 0.1 mM DTT, 0.1 mM PMSF) containing a protease inhibitor cocktail and incubated on ice for 30 min with intermittent mixing. The protein concentration was measured using the Bradford reagent (Bio-Rad Laboratories Inc., Hercules, CA, USA). An equal amount (20 µg) of protein was loaded on 10% poly acrylamide gels and transferred to a nitrocellulose membrane. After blocking with 5% skimmed milk, the membrane was incubated at 4 °C overnight with specific primary antibodies. The membrane was washed and incubated at room temperature for 1 h with secondary antibodies conjugated with horseradish peroxidase (HRP). Finally, the immunoblot was developed for visualization using a chemiluminescence kit. Primary antibodies for Cleaved-caspase 3, MEK, p-MEK, Erk1/2, p-Erk1/2, mTOR, Akt, p-Akt, and GAPDH and all secondary antibodies were obtained from Santa Cruz Biotechnology (Santa Cruz, CA, USA).

HCT116 cells [5] = assay: Cell colony formation assay; type: cell-based, human; settings: 1.25, 2.5, 5 µM, 14 d
Procedure: To investigate the effects of echinatin derivatives on the clonogenic potential of HCT116 cells, the colony formation assay was performed as previously described. HCT116 cells were seeded into 6-well plates at 37 °C with 5% CO2 for 24 h and then treated with Compound T4 and echinatin at various concentrations (0 µM, 1.25 µM, 2.5 µM, and 5 µM) for 14 d. Then, cells were stained with crystal violet solution and clone numbers were counted directly with the naked eye.

HCT116 cells [6] = assay: Wound healing assay; type: cell-based, human; settings: 24 h, serum-free medium
Procedure: Five lines were drawn evenly on the back of the 6-well plate and transferred HCT116 cells (1 × 10^6/well) in a 6-well plate until a uniform monolayer of cells formed at the bottom of the 6-well plate. Then, we drew lines on the cells using a 200 μL pipette tip. We then carefully washed the damaged cell monolayer with PBS, then treated with different concentrations of Compound T4, and incubated in serum-free medium for 24 h. We then used an inverted microscope to take photos of the 6-hole plate at the 0 and 24 h time points and used ImageJ for processing and analysis.

HCT116 cells [7] = assay: TUNEL staining; type: cell-based, human; settings: varying concentrations
Procedure: The slides were immersed in 4% paraformaldehyde (pH 7.4) for 25 min at room temperature and then washed with PBS 3 times. The cells were immersed in 0.1% Triton X-100 solution prepared with PBS for 10 min (operation on ice) and then washed twice with PBS. Dilute 5× equilibration buffer with deionized water and 100 µL 1× equilibration buffer were added to each climbing tablet to cover the sample area to be tested, then incubated at room temperature for 15 min. […] The slides were placed in a wet box and incubated at 37 °C for 60 min. The wet box was wrapped with aluminum foil to avoid light. These were then washed three times with PBS with DAPI dripped and incubated in the dark for 5 min. The nucleus of the specimen was stained. Water-absorbent paper was used to absorb the liquid on the climbing sheet, then a sealing liquid containing an anti-fluorescence quenching agent was used to seal the film before the images were observed and collected under a fluorescence microscope.

Chain of c-KIT (P10721 26-976): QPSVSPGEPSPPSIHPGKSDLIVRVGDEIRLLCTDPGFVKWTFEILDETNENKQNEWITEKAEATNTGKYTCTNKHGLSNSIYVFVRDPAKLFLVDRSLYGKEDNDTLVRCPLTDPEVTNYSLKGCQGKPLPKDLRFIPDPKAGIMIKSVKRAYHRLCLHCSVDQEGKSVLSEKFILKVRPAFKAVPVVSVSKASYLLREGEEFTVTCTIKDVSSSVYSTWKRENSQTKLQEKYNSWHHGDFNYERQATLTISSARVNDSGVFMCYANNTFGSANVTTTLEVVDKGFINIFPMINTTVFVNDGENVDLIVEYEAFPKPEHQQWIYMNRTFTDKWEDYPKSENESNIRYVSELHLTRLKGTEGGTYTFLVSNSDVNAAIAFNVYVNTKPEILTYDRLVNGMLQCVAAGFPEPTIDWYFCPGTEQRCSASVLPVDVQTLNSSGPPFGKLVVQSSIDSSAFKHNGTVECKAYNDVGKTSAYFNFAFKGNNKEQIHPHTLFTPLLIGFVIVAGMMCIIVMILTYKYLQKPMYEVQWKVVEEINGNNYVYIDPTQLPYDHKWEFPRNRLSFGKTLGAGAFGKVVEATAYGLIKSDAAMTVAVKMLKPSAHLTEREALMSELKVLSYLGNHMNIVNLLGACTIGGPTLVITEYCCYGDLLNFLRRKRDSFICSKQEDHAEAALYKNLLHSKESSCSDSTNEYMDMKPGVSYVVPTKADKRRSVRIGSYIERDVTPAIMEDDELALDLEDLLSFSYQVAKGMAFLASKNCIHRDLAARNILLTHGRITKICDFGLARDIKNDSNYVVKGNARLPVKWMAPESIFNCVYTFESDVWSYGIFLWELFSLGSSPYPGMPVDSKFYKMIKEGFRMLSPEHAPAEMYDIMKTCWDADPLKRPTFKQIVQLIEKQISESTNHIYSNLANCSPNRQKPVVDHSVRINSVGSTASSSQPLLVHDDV

COc1cc(O)ccc1/C=C/C(=O)c1ccc(OCc2nnc(Nc3ccc(C(F)(F)F)cc3)o2)cc1 [Compound T4, (E)-3-(4-Hydroxy-2-methoxyphenyl)-1-{4-{{5-{[4-(trifluoromethyl)phenyl]amino}-1,3,4-oxadiazol-2-yl}methoxy}phenyl}propenone]
IC50 (K562): 8.6 ± 0.61 µM | IC50 (KU812): 8.09 ± 0.91 µM | IC50 (HT-29): 2.87 ± 0.32 µM | IC50 (HCT116): 1.71 ± 0.46 µM | growth of CCC-HIE-2 cells (CCC-HIE-2): not significantly influenced | SI (selectivity index) (CCC-HIE-2; CCC-HIE-2 vs HCT116): 16.1 | IC50 (CCC-HIE-2; human embryonic intestinal mucosal derived cell line): 27.6 ± 1.37 µM | IC50 (c-KIT): 0.178 µM | IC50 [1]: 1.71 to 8.6 µM | generation and accumulation of ROS (HCT116 cells [2]): concentration-dependent generation and accumulation of ROS | distribution of cell cycle phase (%): S (HCT116 cells [3]; 5 μM, 48 h (control 28.0%)): 16.8% | distribution of cell cycle phase (%): G0/G1 (HCT116 cells [3]; 5 μM, 48 h (control 54.7%)): 65.1% | cell cycle arrest (HCT116 cells [3]; various concentrations, 48 h): blocked the cell cycle in the G0/G1 phase | expression of the phosphorylated forms of Akt, MEK, Erk1/2, and mTOR (HCT116 cells [4]; 1.25, 2.5, 5 μM): significantly downregulated | protein expression levels of Akt, MEK, and Erk1/2 (HCT116 cells [4]; 1.25, 2.5, 5 μM): not significantly altered | expression of caspase-3, as a percentage of GAPDH (HCT116 cells [4]; upregulated from 24% following T4 treatment (0-5 μM)): 49% | cell colony number (HCT116 cells [5]): decreased in a dose-dependent manner | HCT116 cell migration (HCT116 cells [6]): strongly inhibited | apoptotic cells (TUNEL red fluorescence) (HCT116 cells [7]): increase in apoptotic cells | melting point: 180.5 to 181.4 °C

COc1cc(O)ccc1/C=C/C(=O)c1ccc(OCc2nnc(Nc3ccc(C(C)(C)C)cc3)o2)cc1 [Compound T8]
IC50 (K562): 19.48 ± 0.12 µM | IC50 (KU812): 12 ± 1.28 µM | IC50 (HT-29): 4.94 ± 0.25 µM | IC50 (HCT116): 6.51 ± 0.19 µM | IC50 (c-KIT): 0.613 µM | melting point: 197.1 to 198.5 °C

FC(F)(F)c1ccc(CNc2ccc(Cc3c[nH]c4ncccc34)cn2)cc1 [PLX647, reference compound]
IC50 (c-KIT): 0.068 µM

COc1cc(O)ccc1/C=C/C(=O)c1ccc(OCc2nnc(Nc3ccc(C)cc3C)o2)cc1 [Compound T15, (E)-1-{4-{{5-[(2,4-Dimethylphenyl)amino]-1,3,4-oxadiazol-2-yl}methoxy}phenyl}-3-(4-hydroxy-2-methoxy-phenyl)propenone]
IC50 (K562): > 30 µM | IC50 (KU812): > 30 µM | IC50 (HT-29): > 30 µM | IC50 (HCT116): > 30 µM | melting point: 192.9 to 194.1 °C

CCOc1ccccc1Nc1nnc(COc2ccc(C(=O)/C=C/c3ccc(O)cc3OC)cc2)o1 [Compound T11, (E)-1-{4-{{5-[(2-Ethoxyphenyl)amino]-1,3,4-oxadiazol-2-yl}methoxy}phenyl}-3-(4-hydroxy-2-methoxyphe-nyl)propenone]
IC50 (K562): > 30 µM | IC50 (KU812): > 30 µM | IC50 (HT-29): > 30 µM | IC50 (HCT116): > 30 µM | melting point: 175.4 to 188.3 °C

COc1cc(O)ccc1/C=C/C(=O)c1ccc(OCc2nnc(Nc3ccc(F)cc3)o2)cc1 [Compound T6, (E)-1-{4-{{5-[(4-Fluorophenyl)amino]-1,3,4-oxadiazol-2-yl}methoxy}phenyl}-3-(4-hydroxy-2-methoxyphen-yl)propenone]
IC50 (K562): > 30 µM | IC50 (KU812): 16.9 ± 1.58 µM | IC50 (HT-29): > 30 µM | IC50 (HCT116): 4.39 ± 0.71 µM | melting point: 211.8 to 214.1 °C

COc1cc(O)ccc1/C=C/C(=O)c1ccc(OCc2nnc(Nc3ccc(Cl)cc3)o2)cc1 [Compound T7, (E)-1-{4-{{5-[(4-Chlorophenyl)amino]-1,3,4-oxadiazol-2-yl}methoxy}phenyl}-3-(4-hydroxy-2-methoxyphen-yl)propenone]
IC50 (K562): > 30 µM | IC50 (KU812): 17.5 ± 1.77 µM | IC50 (HT-29): > 30 µM | IC50 (HCT116): 2.08 ± 0.54 µM | melting point: 211.4 to 212.1 °C

COc1cc(O)ccc1/C=C/C(=O)c1ccc(OCc2nnc(Nc3c(F)cccc3F)o2)cc1 [Compound T17, (E)-1-{4-{{5-[(2,6-Difluorophenyl)amino]-1,3,4-oxadiazol-2-yl}methoxy}phenyl}-3-(4-hydroxy-2-methoxy-phenyl)propenone]
IC50 (K562): > 30 µM | IC50 (KU812): > 30 µM | IC50 (HT-29): > 30 µM | IC50 (HCT116): > 30 µM | melting point: 193 to 194.3 °C

COc1ccc(Nc2nnc(COc3ccc(C(=O)/C=C/c4ccc(O)cc4OC)cc3)o2)cc1 [Compound T2, (E)-3-(4-Hydroxy-2-methoxyphenyl)-1-{4-{{5-[(4-methoxyphenyl)amino]-1,3,4-oxadiazol-2-yl}methoxy}phenyl}p-ropenone]
IC50 (K562): > 30 µM | IC50 (KU812): 13.3 ± 0.39 µM | IC50 (HT-29): 8.78 ± 0.12 µM | IC50 (HCT116): 3.97 ± 0.53 µM | melting point: 212.6 to 213.6 °C

CCOc1ccc(Nc2nnc(COc3ccc(C(=O)/C=C/c4ccc(O)cc4OC)cc3)o2)cc1 [Compound T3]
IC50 (K562): 15.5 ± 1.09 µM | IC50 (KU812): 17.2 ± 0.67 µM | IC50 (HT-29): 5.16 ± 0.11 µM | IC50 (HCT116): 2.47 ± 0.56 µM | IC50 (c-KIT): 0.237 µM | melting point: 200.1 to 200.4 °C
